Laboratory results as given in patent publication US10098895B2, “Treatment of symptoms related to neurodegenerative disorders through pharmacological dermal activation of cranial nerves” (GLIA, LLC, priority 2016, dated 2018).
“Also recorded” adds a separate entry of the source.

Experiments:
[1] = system: Parkinson's disease symptoms; experiment: Example 2: Parkinson's disease subject, topical progesterone and testosterone; assay type: in vivo, human
Text: A person was diagnosed with Parkinson's disease in August of 2015. Notable symptoms include both resting and action tremor of the left hand and fingers, forearm, and, to a lesser extent, the right hand and the left leg. Handwriting and computer keyboard work were difficult. They had ocular symptoms associated with the disease, including dry eye disease with moderate to severe burning and grittiness, rapid blink rate, and partial blinking. They used artificial tears constantly in an attempt to alleviate the ocular symptoms. They had not been on any Parkinson's medications. Their Parkinson's tremor followed an “on-off” cycle that correlated with their stress levels, the “on” cycle being times with low stress and few symptoms, and the “off” cycle induced by stress showing an increase in symptoms.
In late February 2017, the subject started applying single daily doses of 0.125% testosterone to the forehead and ear conchae. By the third day of treatment, the subject was tremor-free for periods of 4-6 hours, and the “on” part of the cycle was more frequent. […] The dose of testosterone was increased to 0.2% once daily in early April.
In July 2017, testosterone application was stopped after a taper to evaluate its effects. […] On Aug. 17, 2017, they reported extreme anxiety.
That same afternoon, the subject applied 0.2% testosterone to their forehead and ear conchae, and the next day reported less anxiety and more “on” cycles. By Aug. 20, 2017, they reported having stabilized on the once daily applications with a 60% or greater increase in “on” periods. On August 28, they reported going 9 hours without tremors and leg spasms. On Aug. 30, 2017, the subject was able to walk 8 miles and exercised in between. They described themself as feeling 100%.

chronic ocular GVHD = experiment: Example 5: second case of chronic ocular GVHD, tear film breakup time by Keratograph 5; assay type: in vivo, human
Procedure: A patient with chronic ocular GVHD complained of eye discomfort, burning, and sticking lids. […] Their first-measured tear film breakup time was 7.4 seconds, with an average breakup time of 11.39 seconds. The patient was treated with a single dose of progesterone 1% to their forehead, followed by retesting of the tear film breakup time after 30 minutes. At that time, the first-measured tear film breakup time was 21.03 seconds, with an average breakup time of 21.35 seconds. The tear meniscus height in both eyes increased over 0.6 mm following the single application of progesterone.

[2] = system: ocular discomfort, tear film production, tremor; experiment: Summary of human examples: onset, duration of efficacy and tolerance; assay type: in vivo; settings: progesterone USP 0.5 to 1 mg per dose, aqueous formulation, to the forehead; all human examples
Text: Additional findings are that very small doses in contrast to what is required in systemic delivery are required once or twice daily, but the pharmacological agents must be applied in such a manner, and from specified formulations, so that they penetrate to the epidermis. It is unnecessary to go deeper than the epidermis, or to be absorbed into the blood circulation. Thus there are no blood brain barrier issues. […] The activation appears to be remote and not proximate innervation by the agents themselves. A further finding is that there has been no buildup of tolerance after months and years of use.
All human examples of neurodegenerative disorder, Parkinson's, essential tremor, herpes ophthalmicus and chronic ocular graft-versus-host disease, had ocular discomfort and signs and symptoms that were treated by low dose progesterone USP, 0.5 to 1 mg per dose, applied in an aqueous formulation to the forehead. […] The afferent nerve accessed is CN V trigeminal nerve but the efferent parasympathetic signaling was via CN VII facial nerve and a branch the greater petrosal nerve that synapses in the pterygopalatine ganglion to innervate tear film secretion. […]
Another surprising observation is that the duration of efficacy is at least 12 hours with the easily monitored parameters such as ocular comfort, tear film production, or tremor reduction.

[3] = system: c-Fos-positive neurons of the spinal trigeminal nucleus; experiment: Example 10: effect of topical progesterone on neural c-Fos expression in rat brainstem; assay type: in vivo; settings: progesterone 1% on the forehead, less than 0.2 mg per dose, two hours later
Procedure: A study was conducted in a rat model using the same formulation of progesterone and the same route of administration as had been used by the individuals in the preceding examples. In the study, 7 rats were treated with progesterone 1% on the forehead, estimated to be less than 0.2 mg per dose, and 6 rats received placebo. Two hours later the animals were perfused and brainstems removed. Brainstem tissues were processed for immunohistochemistry using an anti-c-Fos antibody to identify c-Fos protein in cell nuclei that can be counted to assess the activity of c-Fos-positive neurons. Two regions of the spinal trigeminal nucleus were examined: (i) rostral spinal trigeminal nucleus (Vsp) subnucleus interpolaris/subnucleus caudalis (Vi/Vc) region and (ii) caudal Vsp subnucleus caudalis/cervical 1 (Vc/C1) region. […] The rat model confirmed forehead application of progesterone signaled the neurons responsible for activation of tear film production. Various authors and experiments had confirmed the role of neurons in the rostral subnucleus interpolaris (Vi/Vc) and caudalis (Vc/C1) region of brain stem within the spinal trigeminal nucleus (Vsp), a major termination zone for trigeminal sensory fibers, to innervate the eye. When cFos genes in these neurons are activated, cFos proteins are produced that can be stained to count the number of activated neurons. (Meng et al., 1996; Meng et al., 2013).

With `CC(=O)[C@H]1CC[C@H]2[C@@H]3CCC4=CC(=O)CC[C@]4(C)[C@H]3CC[C@]12C` [progesterone] the tremors ([1]; progesterone 1% to forehead) was “no impact on the tremors”, the dry eye disease ([1]; progesterone 1% to forehead, within the first week) was “dry eye disease resolved” and the tremor symptoms ([1]; topical progesterone additionally applied to the ear conchae) was “minimal impact on tremor symptoms”. For the same molecule, the dry eye disease ([1]; topical progesterone continued during testosterone abstinence) was “continued to be well managed”, the “duration of increased ocular comfort with each dose” value (chronic ocular GVHD; progesterone twice a day to forehead) was “at least 5 hours” and the “increase in tear meniscus height in both eyes” value (chronic ocular GVHD; single application of progesterone 1% to forehead) was “over 0.6 mm”. The “first-measured tear film breakup time” value (chronic ocular GVHD; single dose progesterone 1% to forehead, after 30 minutes, pre-treatment 7.4 seconds) was 21.03 s, the “average tear film breakup time” value (chronic ocular GVHD; single dose progesterone 1% to forehead, after 30 minutes, pre-treatment 11.39 seconds) was 21.35 s and the “duration of ocular comfort per dose” value [2] was “at least 12 hours”. For the same molecule, the “time to ocular comfort and tear film secretion” value [2] was “within a few minutes”, the “number of activated (c-Fos-positive) neurons in the Vc/C1 region, compared to placebo” value [3] was “but not the Vc/C1 region” and the “number of activated (c-Fos-positive) neurons in the Vi/Vc region, compared to placebo” value ([3]; 7 rats vs 6 placebo) was “significantly greater number of activated neurons; also recorded: significant increase in activated neurons”.
